Assay results from ChEMBL document CHEMBL1697821, “Development of a phospholipidosis database and predictive quantitative structure-activity relationship (QSAR) models” (Toxicol Mech Methods, 2008).

System: Phospholipidosis
Test: Literature-mined public compounds from Kruhlak et al phospholipidosis modelling dataset

Q: For `CC[C@]1(O)CC[C@H]2[C@@H]3CCC4=CCCC[C@@H]4[C@H]3CC[C@@]21C`, which Phospholipidosis is on record?
A: Negative: based on the absence of positive reported data from WMDD

Q: With `CC(=O)O.C[C@H]1C[C@@H]2[C@H]([C@@H](O)C[C@@]3(C)[C@H]2CC[C@]3(O)C(=O)CO)[C@@]2(C)C=CC(=O)C=C12` as the molecule, how does the Phospholipidosis read?
A: Negative: based on the absence of positive reported data from WMDD

Q: Which Phospholipidosis does the source give for `CNS(=O)(=O)Cc1ccc2[nH]cc(CCN(C)C)c2c1` here?
A: Negative: confirmed by electron microscopy

Q: How did the Phospholipidosis turn out when `CC[C@@H](C(N)=O)N1CCCC1=O` was run?
A: Negative: based on the absence of positive reported data from WMDD

Q: With `COc1ccc(CC2c3cc(OC)c(OC)cc3CC[N+]2(C)CCC(=O)OCCCCCOC(=O)CC[N+]2(C)CCc3cc(OC)c(OC)cc3C2Cc2ccc(OC)c(OC)c2)cc1OC` (stereo unspecified) as the molecule, how does the Phospholipidosis read?
A: Negative: based on the absence of positive reported data from WMDD

Q: `CN(C)CCN(Cc1cccs1)c1ccccn1` was tested. Which Phospholipidosis did it give?
A: Negative: confirmed by electron microscopy

Q: `CCN(CC)CCSC(=O)C(c1ccccc1)c1ccccc1` was tested. Which Phospholipidosis did it give?
A: Negative: based on the absence of positive reported data from WMDD

Q: For `COc1nccnc1NS(=O)(=O)c1ccc(N)cc1`, which Phospholipidosis is on record?
A: Negative: based on the absence of positive reported data from WMDD

Q: For `CN1CCN(Cc2nc3cccc4c3c([n+]2[O-])-c2ccccc2-4)CC1`, which Phospholipidosis is on record?
A: Positive: weak inducer based on presence of foamy macrophages and cytoplasmic vacuolations

Q: With `CCOC(=O)[C@H](CCc1ccccc1)N[C@@H](C)C(=O)N1Cc2ccccc2C[C@H]1C(=O)O` as the molecule, how does the Phospholipidosis read?
A: Negative: based on the absence of positive reported data from WMDD

Q: Which Phospholipidosis does the source give for `CN(C)CCC=C1c2ccccc2CCc2c(Cl)cccc21` here?
A: Positive: strong inducer confirmed by electron microscopy

Q: How did the Phospholipidosis turn out when `OC(CN1CCCCC1)c1ccc(C=C2c3ccccc3-c3ccccc32)cc1` (stereo unspecified) was run?
A: Positive: strong inducer confirmed by electron microscopy

Q: `CCCC[C@@H]1CC(=O)[C@]2(O)O[C@@H]3[C@@H](NC)[C@@H](O)[C@@H](NC)[C@H](O)[C@H]3O[C@@H]2O1.O=S(=O)(O)O` was tested. Which Phospholipidosis did it give?
A: Positive: strong inducer confirmed by electron microscopy

Q: With `CN1CCN(C2=Nc3cc(Cl)ccc3N(C)n3cccc32)CC1` as the molecule, how does the Phospholipidosis read?
A: Positive: strong inducer confirmed by electron microscopy

Q: Which Phospholipidosis does the source give for `CN(C)CCC=C1c2ccccc2C=Cc2c(Cl)cccc21` here?
A: Positive: strong inducer confirmed by electron microscopy

Q: With `CCN(CC)CCn1nc2c3c(c(C)ccc31)Sc1cc(Cl)ccc1-2` as the molecule, how does the Phospholipidosis read?
A: Positive: strong inducer confirmed by electron microscopy

Q: `CCN(CC)Cc1cc(Nc2ccnc3cc(Cl)ccc23)ccc1O.Cl` was tested. Which Phospholipidosis did it give?
A: Positive: weak inducer based on presence of foamy macrophages and cytoplasmic vacuolations

Q: Which Phospholipidosis does the source give for `CC1(C)OCC(C(CS(=O)(=O)c2ccc(Oc3cccc(OC(F)(F)F)c3)cc2)NC=O)O1` (stereo unspecified) here?
A: Negative: confirmed by electron microscopy

Q: Which Phospholipidosis does the source give for `CC1(C)C(=O)NC(=O)N1CC(COc1ccc(-c2ccc(OC(F)(F)F)cc2)cc1)NC=O` (stereo unspecified) here?
A: Negative: confirmed by electron microscopy

Q: For `CC1(C)C(=O)NC(=O)N1CC(N)COc1ccc(-c2ccc(OC(F)(F)F)cc2)cc1` (stereo unspecified), which Phospholipidosis is on record?
A: Positive: weak inducer based on presence of foamy macrophages and cytoplasmic vacuolations

Q: For `CCCN[C@@H]1[C@H](C)[C@@H](O)[C@](C)(O)[C@@H](CC)OC(=O)[C@H](C)[C@@H](O[C@H]2C[C@@](C)(OC)[C@@H](O)[C@H](C)O2)[C@H](C)[C@@H](O[C@@H]2O[C@H](C)C[C@H](N(C)C)[C@H]2O)[C@](C)(O)C[C@H]1C`, which Phospholipidosis is on record?
A: Positive: weak inducer based on presence of foamy macrophages and cytoplasmic vacuolations

Q: How did the Phospholipidosis turn out when `CCCNCCc1ccc(NS(=O)(=O)c2ccc(OC(F)(F)F)cc2)cc1` was run?
A: Positive: strong inducer confirmed by electron microscopy

Q: `CCC(c1ccc2cc(OC)ccc2c1)C(C)(C)C(=O)O` (stereo unspecified) was tested. Which Phospholipidosis did it give?
A: Negative: based on the absence of positive reported data from WMDD

Q: How did the Phospholipidosis turn out when `NC[C@H]1Cc2ccc(F)cc2[C@@H](c2ccccc2)O1` was run?
A: Positive: strong inducer confirmed by electron microscopy

Q: Which Phospholipidosis does the source give for `Clc1ccccc1CNC[C@H]1CC[C@H](CNCc2ccccc2Cl)CC1` here?
A: Positive: strong inducer confirmed by electron microscopy

Q: How did the Phospholipidosis turn out when `CC1(C)OC[C@H]([C@@H](CS(=O)(=O)c2ccc(Oc3ccc(OC(F)(F)F)cc3)cc2)N(O)C=O)O1` was run?
A: Negative: confirmed by electron microscopy

Q: For `NCCc1cc(O)c(O)c(O)c1`, which Phospholipidosis is on record?
A: Positive: strong inducer confirmed by electron microscopy

Q: With `CCC[C@@H](NC(=O)N1C(=O)C(CC)(CC)[C@@H]1Oc1ccc(C(=O)N2CCN(C)CC2)cc1)c1ccc2c(c1)OCO2` as the molecule, how does the Phospholipidosis read?
A: Positive: weak inducer based on presence of foamy macrophages and cytoplasmic vacuolations

Q: For `O=P(O)(O)OCC(O)CO` (stereo unspecified), which Phospholipidosis is on record?
A: Negative: based on the absence of positive reported data from WMDD

Q: How did the Phospholipidosis turn out when `CC1(C)NC(=O)N(C[C@@H](COc2ccc(-c3ccc(OC(F)(F)F)cc3)cc2)N(O)C=O)C1=O` was run?
A: Negative: confirmed by electron microscopy

Q: How did the Phospholipidosis turn out when `C[n+]1ccc(-c2cc[n+](C)cc2)cc1` was run?
A: Positive: strong inducer confirmed by electron microscopy

Q: How did the Phospholipidosis turn out when `N[C@@H](Cc1ccc(N(CCCl)CCCl)cc1)C(=O)O` was run?
A: Negative: based on the absence of positive reported data from WMDD

Q: For `CC(=O)Nc1ccc(O)cc1` [ACETAMINOPHEN], which Phospholipidosis is on record?
A: Negative: confirmed by electron microscopy

Q: How did the Phospholipidosis turn out when `CC(=O)c1ccc2c(c1)N(CCCN1CCN(CCO)CC1)c1ccccc1S2` [ACETOPHENAZINE] was run?
A: Negative: based on the absence of positive reported data from WMDD

Q: With `CC(=O)Nc1c(I)cc(I)c(C(=O)O)c1I` [ACETRIZOIC ACID] as the molecule, how does the Phospholipidosis read?
A: Negative: based on the absence of positive reported data from WMDD

Q: For `Nc1ncnc2nc[nH]c12` [ADENINE], which Phospholipidosis is on record?
A: Negative: based on the absence of positive reported data from WMDD

Q: Which Phospholipidosis does the source give for `Nc1ncnc2c1ncn2[C@@H]1O[C@H](CO)[C@@H](O)[C@H]1O` [ADENOSINE] here?
A: Negative: based on the absence of positive reported data from WMDD

Q: How did the Phospholipidosis turn out when `CCCSc1ccc2nc(NC(=O)OC)[nH]c2c1` [ALBENDAZOLE] was run?
A: Negative: based on the absence of positive reported data from WMDD

Q: With `C=CCN1C(=O)C(CC(C)C)NC1=S` (stereo unspecified) [ALBUTOIN] as the molecule, how does the Phospholipidosis read?
A: Negative: based on the absence of positive reported data from WMDD

Q: Which Phospholipidosis does the source give for `Oc1ncnc2[nH]ncc12` [ALLOPURINOL] here?
A: Positive: weak inducer based on presence of foamy macrophages and cytoplasmic vacuolations

Q: For `C=CC[C@]1(O)CC[C@H]2[C@@H]3CCC4=CCCC[C@@H]4[C@H]3CC[C@@]21C` [ALLYLESTRENOL], which Phospholipidosis is on record?
A: Negative: based on the absence of positive reported data from WMDD

Q: How did the Phospholipidosis turn out when `NC12CC3CC(CC(C3)C1)C2` [AMANTADINE] was run?
A: Positive: strong inducer confirmed by electron microscopy

Q: For `N=C(N)N/N=C1C=C/C(=N\NC(N)=S)C=C\1` [AMBAZONE], which Phospholipidosis is on record?
A: Negative: based on the absence of positive reported data from WMDD

Q: How did the Phospholipidosis turn out when `Nc1c(Br)cc(Br)cc1CN[C@H]1CC[C@H](O)CC1` [AMBROXOL] was run?
A: Positive: weak inducer based on presence of foamy macrophages and cytoplasmic vacuolations

Q: For `NCC[C@H](O)C(=O)N[C@@H]1C[C@H](N)[C@@H](O[C@H]2O[C@H](CN)[C@@H](O)[C@H](O)[C@H]2O)[C@H](O)[C@H]1O[C@H]1O[C@H](CO)[C@@H](O)[C@H](N)[C@H]1O` [AMIKACIN], which Phospholipidosis is on record?
A: Positive: strong inducer confirmed by electron microscopy

Q: With `CCC1(c2ccc(N)cc2)CCC(=O)NC1=O` (stereo unspecified) [AMINOGLUTETHIMIDE] as the molecule, how does the Phospholipidosis read?
A: Negative: based on the absence of positive reported data from WMDD

Q: `Nc1nc(N)c2nc(CNc3ccc(C(=O)N[C@@H](CCC(=O)O)C(=O)O)cc3)cnc2n1` [AMINOPTERIN] was tested. Which Phospholipidosis did it give?
A: Negative: based on the absence of positive reported data from WMDD

Q: Which Phospholipidosis does the source give for `CCCCc1oc2ccccc2c1C(=O)c1cc(I)c(OCCN(CC)CC)c(I)c1` [AMIODARONE] here?
A: Positive: strong inducer confirmed by electron microscopy

Q: With `CN(C)CCC=C1c2ccccc2CCc2ccccc21` [AMITRIPTYLINE] as the molecule, how does the Phospholipidosis read?
A: Positive: strong inducer confirmed by electron microscopy

Q: Which Phospholipidosis does the source give for `CC1(C)S[C@@H]2[C@H](NC(=O)[C@H](N)c3ccc(O)cc3)C(=O)N2[C@H]1C(=O)O` [AMOXICILLIN] here?
A: Negative: based on the absence of positive reported data from WMDD

Q: For `CC(N)Cc1ccccc1` (stereo unspecified) [AMPHETAMINE], which Phospholipidosis is on record?
A: Negative: based on the absence of positive reported data from WMDD

Q: How did the Phospholipidosis turn out when `N=c1ccn2c(n1)O[C@H]1[C@H](O)[C@@H](CO)O[C@H]12` [ANCITABINE] was run?
A: Negative: based on the absence of positive reported data from WMDD

Q: With `C[C@]12CC[C@H]3[C@@H](CC=C4C[C@@H](O)CC[C@@]43C)[C@@H]1CC[C@@H]2O` [ANDROSTENEDIOL] as the molecule, how does the Phospholipidosis read?
A: Negative: based on the absence of positive reported data from WMDD

Q: For `CCOC(=O)C1(c2ccccc2)CCN(CCc2ccc(N)cc2)CC1` [ANILERIDINE], which Phospholipidosis is on record?
A: Negative: based on the absence of positive reported data from WMDD

Q: How did the Phospholipidosis turn out when `CCCC(CCC)C(=O)O[C@H]1C[C@H]2CC[C@@H](C1)[N+]2(C)C.[Br-]` [ANISOTROPINE METHYLBROMIDE] was run?
A: Negative: based on the absence of positive reported data from WMDD

Q: For `c1ccc(CN(CC2=NCCN2)c2ccccc2)cc1` [ANTAZOLINE], which Phospholipidosis is on record?
A: Negative: based on the absence of positive reported data from WMDD

Q: For `CCCC1C(=O)N2C(N(C)C)=Nc3ccc(C)cc3N2C1=O` (stereo unspecified) [APAZONE], which Phospholipidosis is on record?
A: Negative: based on the absence of positive reported data from WMDD

Q: How did the Phospholipidosis turn out when `CN1[C@@H]2CC[C@H]1C[C@@H](OC(=O)C(CO)c1ccccc1)C2` (stereo partly specified) [ATROPINE] was run?
A: Positive: weak inducer based on presence of foamy macrophages and cytoplasmic vacuolations

Q: How did the Phospholipidosis turn out when `CN(C)CCCN(C)[C@H]1CC[C@H]2[C@@H]3CC=C4C[C@@H](O)CC[C@]4(C)[C@H]3CC[C@]12C` [AZACOSTEROL] was run?
A: Positive: strong inducer confirmed by electron microscopy

Q: Which Phospholipidosis does the source give for `CC(=O)OC[C@H]1O[C@@H](n2ncc(=O)[nH]c2=O)[C@H](OC(C)=O)[C@@H]1OC(C)=O` [AZARIBINE] here?
A: Negative: based on the absence of positive reported data from WMDD

Q: Which Phospholipidosis does the source give for `CN1CCN(CCCCN2C(=O)CN(/N=C/c3ccc(-c4ccc(Cl)cc4)o3)C2=O)CC1.Cl.Cl` [AZIMILIDE DIHYDROCHLORIDE] here?
A: Positive: weak inducer based on presence of foamy macrophages and cytoplasmic vacuolations
